Assay results published in patent US20110263642A1, “METHODS FOR TREATMENT OF MULTIPLE SCLEROSIS” (FibroGen, Inc., priority 2008, published 2011).
Read-outs that look alike come from different tables or passages of the source.

Assays:
[1] = test system: Oligodendrocytes (MO3.13 cells); test: Ceramide-induced cell death of oligodendrocytes, Calcein AM viability; format: cell-based; settings: compound 20 μM, non-ceramide control = 100
From the text: (See e.g., Craighead et al. (2000) Neurosci Lett. 278:125-8; Jana et al. (2007) J Neuroimmune Pharmacol. 2:184-93; Jana et al. (2009) J Neurol Sci. 278:5-15; Singh et al. (1998) J Biol. Chem. 273:20354-62.) In this model, addition of ceramide to cultured oligodendrocytes results in oxidative stress-induced cell death (i.e. apoptosis). The effect of compounds and methods of the present invention on the ability to improve oligodendrocyte viability following ceramide challenge was examined as follows. Oligodendrocytes (MO3.13 cells; Cedarlane Laboratories, Burlington, N.C.) were plated in 96-well culture dishes at a density of 4000 cells per well and cultured at 37° C., 10% CO2 in DMEM containing L-glutamine, sodium pyruvate, and 25 mM glucose (Mediatech Inc., Manassas, Va.) and supplemented with 10% FBS (Invitrogen Corporation, Carlsbad, Calif.). The next day, the plating media was removed and replaced with DMEM containing L-glutamine (Invitrogen Corporation, Carlsbad, Calif.) and supplemented with 5.5 mM glucose. Cells were then treated with vehicle (0.015% DMSO) or ceramide (Sigma-Aldrich, St. Louis, Mo.) plus vehicle (0.05% DMSO) or a compound of the invention (20 μM).
For cells treated longer than 3 days, half the media was removed after the third day of treatment and replaced with an equal volume of fresh treatment media containing vehicle (0.015% DMSO) or ceramide plus vehicle (0.05% DMSO) or a compound of the invention.
Cell viability was assessed 3, 4, and 5 days after treatment using the following protocol. Treatment media was removed from the cells and 100 ul of 1.67 uM Calcein AM reagent (Invitrogen Corporation, Carlsbad, Calif.) prepared in DMEM containing L-glutamine (Invitrogen Corporation, Carlsbad, Calif.) and supplemented with 5.5 mM glucose was added to each well. Cells were returned to 37° C. in a 10% CO2 incubator for approximately 30 minutes before assessing fluorescence (Ex 485 nm/Em 538 nm) using a microplate reader (Molecular Devices, Sunnyvale, Calif.). Images were taken of representative wells using a fluorescent microscope equipped with a camera (Nikon, Melville, N.Y.) and imaging software (Nikon, Melville, N.Y.).

[2] = test system: EAE animal model of chronic progressive multiple sclerosis; test: Chronic progressive EAE induced by MOG35-55 and pertussis toxin in mice, neurological scoring to day 35; format: in vivo, C57BL/6 mice
From the text: A chronic progressive model of EAE is an accepted animal model of human chronic progressive multiple sclerosis (MS). In this model, induction of chronic progressive EAE occurs following injections of myelin oligodendrocyte glycoprotein (MOG). Approximately 8 to 14 days after injection of MOG, animals develop chronic progressive paralysis similar to that observed in humans with chronic progressive MS.
Female C57BL/6 mice (8-10 weeks old) were used in this study (Taconic Farm, CA). Compounds of the present invention were formulated in 0.5% carboxymethyl cellulose (CMC) with 0.1% Polysorbate 80 to achieve a final concentration of either 1.2 mg/ml or 4.0 mg/ml. FTY-720 was also formulated in 0.5% carboxymethyl cellulose (CMC) with 0.1% Polysorbate 80 to achieve a final concentration of 2.0 mg/ml.
Induction of chronic progressive EAE by injection with myelin oligodendrocyte glycoprotein (MOG) was performed as follows. Mice were injected subcutaneously with 200 μg of myelin oligodendrocyte glycoprotein (MOG35-55) peptide emulsion in both sides of their pectoral regions (50 μl each side). At 8 hours and 48 hr after immunization with MOG, animals were injected intraperitoneally with 400 ng of pertussis toxin (PT) in 100 μl of saline. Control mice received both injections with an equivalent volume of saline without MOG or PT.
[…] FTY-720 (10 mg/kg) was used in this study as a positive control and was administered daily from day 0 to day 35.
Neurological scoring was performed daily from day 7 to day 35 following MOG injection. Grading of disease severity (i.e., disease score) was based on the following observations performed by two different observers: 0=no abnormality; 1=distal weakness of the tail (limp tail); 2=limp tail and weakness of hind legs (mild paraparesis); 3=limp tail and complete paralysis of hind legs or paralysis in one of one front leg and one hind leg (moderate paraparesis); 4=limp tail, complete hind leg and partial front leg paralysis (moderate quadraparesis); 5=complete hind and front leg paralysis (moribund). Analysis of variance (ANOVA) was performed on data from the measured (neurological score) parameters. p value≦0.05 were considered significant.

[3] = 72 h, ceramide 2.75 μM, read-out: % Viable at Day 3
[4] = 96 h, ceramide 2.75 μM, read-out: % Viable at Day 4
[5] = 120 h, ceramide 2.75 μM, read-out: % Viable at Day 5
[6] = 72 h, ceramide 2.25 μM, read-out: % Viable at Day 3
[7] = 96 h, ceramide 2.25 μM, read-out: % Viable at Day 4
[8] = 120 h, ceramide 2.25 μM, read-out: % Viable at Day 5

`COc1cc(F)cc(Oc2ccc3c(O)c(C(=O)NCC(=O)O)ncc3c2)c1` [Compound D, {[7-(3-Fluoro-5-methoxy-phenoxy)-4-hydroxy-isoquinoline-3-carbonyl]-amino}-acetic acid] gave a viability at 20 µM [1, 3] of 79%, a viability at 20 µM [1, 4] of 74% and a viability at 20 µM [1, 5] of 61%.
Compound `N#Cc1nc(C(=O)NCC(=O)O)c(O)c2ccn(Cc3ccc(-c4ccccc4)cc3)c12` [Compound P, [(1-Biphenyl-4-ylmethyl-7-cyano-4-hydroxy-1H-pyrrolo[2,3-c]pyridine-5-carbonyl)-amino]-acetic acid] has a viability at 20 µM [1, 6] of 79%, a viability at 20 µM [1, 7] of 80% and a viability at 20 µM [1, 8] of 77%.
Compound `O=C(O)CNC(=O)c1ncc2cc(Oc3ccccc3)ccc2c1O` [Compound F, [(4-Hydroxy-7-phenoxy-isoquinoline-3-carbonyl)-amino]-acetic acid] has a viability at 20 µM [1, 6] of 85%, a viability at 20 µM [1, 3] of 72% and a viability at 20 µM [1, 7] of 66%. The viability at 20 µM [1, 4] was 53%, the viability at 20 µM [1, 8] was 62% and the viability at 20 µM [1, 5] was 51%.
`CCCCCCOc1ccc2oc(=O)c(C(=O)NCC(=O)O)c(O)c2c1` [Compound K, [(6-Hexyloxy-4-hydroxy-2-oxo-2H-chromene-3-carbonyl)-amino]-acetic acid] showed a viability at 20 µM [1, 3] of 72%, a viability at 20 µM [1, 4] of 43% and a viability at 20 µM [1, 5] of 56%.
For `CCCCOc1ccc2c(O)c(C(=O)NCC(=O)O)c(=O)sc2c1` [Compound M, [(7-Butoxy-4-hydroxy-2-oxo-2H-thiochromene-3-carbonyl)-amino]-acetic acid], the viability at 20 µM [1, 3] was 74%, the viability at 20 µM [1, 4] was 57% and the viability at 20 µM [1, 5] was 59%.
Work on `COc1ccc(Cn2c(Cl)c(Cl)c3c(O)c(C(=O)NCC(=O)O)nc(C#N)c32)cc1` [Compound Q, {[2,3-Dichloro-7-cyano-4-hydroxy-1-(4-methoxy-benzyl)-1H-pyrrolo[2,3-c]pyridine-5-carbonyl]-amino}-acetic acid] yielded a viability at 20 µM [1, 3] of 70%, a viability at 20 µM [1, 4] of 59% and a viability at 20 µM [1, 5] of 50%.
`CC1(C)C(=O)C(C(=O)NCC(=O)O)=C(O)c2cc(Cl)ccc21` [Compound N, [(7-Chloro-1-hydroxy-4,4-dimethyl-3-oxo-3,4-dihydro-naphthalene-2-carbonyl)-amino]-acetic acid] gave a viability at 20 µM [1, 3] of 82%, a viability at 20 µM [1, 4] of 67% and a viability at 20 µM [1, 5] of 67%.
`Cc1ccc(Oc2cccc3c(C#N)nc(C(=O)NCC(=O)O)c(O)c23)cc1` [Compound B, [(1-Cyano-4-hydroxy-5-p-tolyloxy-isoquinoline-3-carbonyl)-amino]-acetic acid] was tested, and the viability at 20 µM [1, 6] was 76%, the viability at 20 µM [1, 7] was 54% and the viability at 20 µM [1, 8] was 16%.
`N#Cc1nc(C(=O)NCC(=O)O)c(O)c2ccn(Cc3ccccc3F)c12` [Compound O, {[7-Cyano-1-(2-fluoro-benzyl)-4-hydroxy-1H-pyrrolo[2,3-c]pyridine-5-carbonyl]-amino}-acetic acid] gave a viability at 20 µM [1, 3] of 74%, a viability at 20 µM [1, 4] of 53% and a viability at 20 µM [1, 5] of 52%.
With `Cc1ccc(Oc2cccc3c(O)c(C(=O)NCC(=O)O)nc(-c4cccnc4)c23)cc1` [Compound C, [(4-Hydroxy-1-pyridin-3-yl-8-p-tolyloxy-isoquinoline-3-carbonyl)-amino]-acetic acid] the viability at 20 µM [1, 6] was 61%, the viability at 20 µM [1, 7] was 51% and the viability at 20 µM [1, 8] was 16%.
In the case of `COc1ccc(-c2ccc3c(O)c(C(=O)NCC(=O)O)c(=O)sc3c2)cc1` [Compound L, {[4-Hydroxy-7-(4-methoxy-phenyl)-2-oxo-2H-thiochromene-3-carbonyl]-amino}-acetic acid], the viability at 20 µM [1, 3] is reported as 75%, the viability at 20 µM [1, 4] is reported as 59% and the viability at 20 µM [1, 5] is reported as 64%.
In the case of `O=C(O)CNC(=O)c1c(O)c2cccn2n(Cc2ccc(C(F)(F)F)cc2)c1=O` [Compound G, {[4-Hydroxy-2-oxo-1-(4-trifluoromethyl-benzyl)-1,2-dihydro-pyrrolo[1,2-b]pyridazine-3-carbonyl]-amino}-acetic acid], the viability at 20 µM [1, 6] is reported as 94%, the viability at 20 µM [1, 7] is reported as 86% and the viability at 20 µM [1, 8] is reported as 80%.
`C[C@H](NC(=O)c1c(O)c2cc(Cl)cn2n(Cc2ccc(C(F)(F)F)cc2)c1=O)C(=O)O` [Compound H, (S)-2-{[6-Chloro-4-hydroxy-2-oxo-1-(4-trifluoromethyl-benzyl)-1,2-dihydro-pyrrolo[1,2-b]pyridazine-3-carbonyl]-amino}-propionic acid] gave a viability at 20 µM [1, 3] of 73%, a viability at 20 µM [1, 4] of 74% and a viability at 20 µM [1, 5] of 77%.
Compound `O=C(O)CNC(=O)c1c(O)c2cc(Cl)cn2n(Cc2ccc(Cl)cc2)c1=O` [Compound I, {[6-Chloro-1-(4-chloro-benzyl)-4-hydroxy-2-oxo-1,2-dihydro-pyrrolo[1,2-b]pyridazine-3-carbonyl]-amino}-acetic acid] has a viability at 20 µM [1, 3] of 76%, a viability at 20 µM [1, 4] of 66% and a viability at 20 µM [1, 5] of 64%.
For `COc1cccc(Oc2cccc3c(O)c(C(=O)NCC(=O)O)ncc23)c1` [Compound E, {[4-Hydroxy-8-(3-methoxy-phenoxy)-isoquinoline-3-carbonyl]-amino}-acetic acid], the viability at 20 µM [1, 3] was 84%, the viability at 20 µM [1, 4] was 74% and the viability at 20 µM [1, 5] was 71%.
With `CCCCCCCCc1ccc(CCC(N)(CO)CO)cc1` [FTY-720, reference compound] the “development of EAE disease (positive control)” value ([2]; 10 mg/kg daily, day 0 to day 35) was “prevented the development of EAE disease” and the “No. of Animals Showing No Disease Activity” value ([2]; through day 35, FTY-720 (Table 3: 10 mg/kg/d, daily)) was 7/7.
For `O=C(O)CNC(=O)c1c(O)c2ccc(-c3ccc(Oc4ccccc4)cc3)cc2oc1=O` [Compound J, {[4-Hydroxy-2-oxo-7-(4-phenoxy-phenyl)-2H-chromene-3-carbonyl]-amino}-acetic acid], the viability at 20 µM [1, 3] was 70%, the viability at 20 µM [1, 4] was 36% and the viability at 20 µM [1, 5] was 22%.
